The record followed here is PubChem BioAssay (NCI).

Each structure is given as a SMILES string.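 Each compound was tested at five concentrations against cells in 96-well plates for 48 hours. The concentration for 50% growth inhibition is given as GI50. TGI denotes the concentration required for complete inhibition of growth.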

What all share (experiment): growth of human tumour cells (NCI), 48 h
For assay [1], the system named is HL-60(TB) leukemia.
Assay [2] deals with OVCAR-4 ovarian.
For assay [3], the system named is NCI-H226 lung.
For assay [4], the system named is MDA-MB-435.
Assay [5] deals with SK-OV-3 ovarian.
Assay [6] relates to CCRF-CEM leukemia.
The subject of assay [7] is SNB-19 CNS.
Assay [8] concerns IGROV1 ovarian.
For assay [9], the system named is MALME-3M melanoma.
Assay [10] relates to A549 NSCLC.

For `CCOC(=O)c1ccccc1OC(=O)NNc1ccccc1`, the GI50 in assay [1] is 0.365 µM; in [2], 15.2 µM; in assay [3] it was > 23.7 µM; in [4] it was 0.531 µM; in [5], > 79.9 µM; in assay [6], 1.8 µM. The GI50 is > 51.6 µM in [7], 33.9 µM in assay [8], 5.44 µM in assay [9] and 0.874 µM in assay [10]. Moreover, the TGI in [2], in assay [3], in assay [4], in assay [5], in [6] and in [7] was > 100 µM each time. Besides, the TGI in assay [8], in [9] and in assay [10] was > 100 µM each time.
On to `COC1=CC(c2ccc[nH]2)=N/C1=C\c1[nH]c(C)c(CC(=O)OCc2ccccc2)c1CCC(=O)OCc1ccccc1`, for which the GI50 in assay [1] is 0.49 µM; in [2] it was 0.358 µM; in assay [3], 0.335 µM; in assay [4], 0.412 µM; in [5] it was 0.523 µM; in assay [6], 0.229 µM. Moreover, the GI50 in assay [7] was 1.72 µM; in assay [8], 0.4 µM; in assay [9] it was 0.886 µM; in [10], 0.427 µM. The TGI came to 2.66 µM in assay [1]; 17.6 µM in [2]; 2.3 µM in assay [3]; 1.64 µM in assay [4]; 3.11 µM in [5]; 2.29 µM in assay [6]. The TGI in assay [7] was > 100 µM; in assay [8], 2.55 µM; in assay [9] it was 2.62 µM; in [10], 10.9 µM.
On to `CCCCCCCC/C=C/CCCCCCCC1=NC(C)(C)CN1CC(C)O` (stereo unspecified), for which the GI50 in assay [1] was 1.88 µM; in assay [2], 3.08 µM; in [3], 6.25 µM; in assay [4], 1.77 µM; in assay [5], 7.64 µM; in [6] it was 2.24 µM. In addition, the GI50 in [7] is 5.54 µM; in assay [8] it was 1.45 µM; in assay [9] it was 1.97 µM; in assay [10], 1.8 µM. Further, the TGI in assay [1] was 4.44 µM; in [2], 11.1 µM; in assay [3] it was 23.7 µM; in assay [4], 3.45 µM; in assay [5], 21.1 µM; in assay [6], 5.97 µM. For the same molecule, the TGI in [7] is 17.7 µM; in [8] it was 2.84 µM; in [9], 4.67 µM; in assay [10] it was 3.42 µM.
`CCN(CC)CCNc1ccc(C)c2sc3cc(Cl)ccc3c(=O)c12`: the GI50 in assay [1] is 1.81 µM; in assay [2], 1.95 µM; in [3], 1.74 µM; in assay [4], 1.7 µM; in assay [5], 1.77 µM; in [6], 1.44 µM. The GI50 in assay [7] was 1.74 µM; in assay [8] it was 1.83 µM; in assay [9] it was 1.84 µM; in assay [10] it was 1.76 µM. In addition, the TGI worked out at 3.71 µM in assay [1]; 5.13 µM in assay [2]; 3.58 µM in [3]; 3.14 µM in assay [4]; 4.88 µM in assay [5]; 3.36 µM in assay [6]. Besides, the TGI in [7] was 3.51 µM; in [8] it was 4.05 µM; in [9] it was 3.61 µM; in [10], 3.28 µM.
`CC1(C)N=C(N)N=C(N)N1c1ccc(CCCCc2ccccc2)c(Cl)c1`: the TGI in assay [1] came out at 3.26 µM; in assay [2], 9.66 µM; in [3], 24.4 µM; in assay [4], 5.91 µM; in assay [5], 11.1 µM; in assay [6], 14.2 µM. Besides, the TGI in [7] was > 35.9 µM; in [8], 2.34 µM; in assay [9], 8.93 µM; in assay [10] it was 15 µM. For the same molecule, the GI50 was 0.0755 µM in assay [2]; 0.275 µM in assay [3]; 0.038 µM in [4]; 0.43 µM in [5]; 0.0374 µM in [6]; 0.0746 µM in [7]. The values for the GI50 in [8], in assay [9] and in [10] were < 0.0185 µM, 0.855 µM and < 0.01 µM, respectively.
Regarding `O=C(/C=C/c1ccco1)c1cc(F)c(Cl)cc1Cl`, the GI50 is 30.8 µM in [1]; 22 µM in assay [2]; 19.9 µM in assay [3]; 32.2 µM in assay [4]; 24.5 µM in [5]; 18.8 µM in assay [6]. For the same molecule, the GI50 is 20 µM in assay [7], 17.2 µM in [8], 16.5 µM in assay [9] and 22 µM in [10]. Also, the TGI in assay [1] is > 100 µM; in assay [2], 72.3 µM; in assay [3], 47.2 µM; in assay [4], > 100 µM; in [5] it was 80.1 µM; in assay [6], 47.5 µM. The TGI was found to be 48.4 µM in [7], 41 µM in assay [8], 38.7 µM in [9] and 70.7 µM in assay [10].
Take `COc1ccc2sc3cccc(NCCN(C)C)c3c(=O)c2c1`: the GI50 in assay [1] was 2.16 µM; in assay [2] it was 3.72 µM; in [3], 3.34 µM; in assay [4], 2.03 µM; in assay [5], 4.26 µM; in assay [6] it was 2.43 µM. The GI50 in assay [7] was 2.78 µM; in [8], 3.35 µM; in assay [9] it was 1.95 µM; in assay [10], 2.57 µM. For the same molecule, the TGI in [1] came out at 4.74 µM; in assay [2], 16.5 µM; in assay [3], 14.1 µM; in [4], 5.07 µM; in assay [5] it was 15 µM; in assay [6] it was 8.39 µM. For the same molecule, the TGI worked out at 14.1 µM in [7], 11.6 µM in assay [8], 3.88 µM in assay [9] and 7.15 µM in assay [10].
As for `C=C(C)[C@@H]1CC[C@]2(COCCC#N)CC[C@]3(C)[C@H](CC[C@@H]4[C@@](C)(CCCNCCC#N)[C@H](C(=C)C)CC[C@]43C)[C@@H]12`, the GI50 in [1] is 8.47 µM; in [2], 18 µM; in assay [3], 8.88 µM; in [4] it was 12.7 µM; in [5], > 50 µM; in assay [6], 10.8 µM. The GI50 is 26.4 µM in [7], 13.1 µM in [8], 8.42 µM in [9] and 34.4 µM in assay [10]. For the same molecule, the TGI in assay [1] is 20.5 µM; in assay [2], > 50 µM; in assay [3], 18.5 µM; in assay [4], 34.5 µM; in assay [5], > 50 µM; in assay [6] it was 38.5 µM. In addition, the TGI was > 50 µM in [7], > 50 µM in [8], 16.2 µM in assay [9] and > 50 µM in [10].
Turning to `COc1c(O)c(OC)c2oc(-c3ccc(O)c(O)c3)c(OC)c(=O)c2c1O`, the TGI in [1] is 68.7 µM; in [2], > 100 µM; in assay [3], > 100 µM; in assay [4], 56.7 µM; in assay [5], 54.4 µM; in assay [6], > 100 µM. Besides, the TGI in assay [7] is > 100 µM; in assay [8] it was 25.7 µM; in assay [9] it was 68 µM; in [10], > 100 µM.
In the case of `Cc1ccc(NC(=O)c2ccc(CN3CCN(C)CC3)cc2)cc1Nc1nccc(-c2cccnc2)n1`, the GI50 was 16 µM in assay [1]; 18.6 µM in [2]; 19.6 µM in assay [3]; 17.4 µM in assay [4]; 28.7 µM in assay [5]; 18.4 µM in assay [6]. The GI50 in assay [7] was 36.1 µM; in assay [8], 20.5 µM; in [9], 16.5 µM; in [10], 25.9 µM. The TGI in [1] was found to be 35.9 µM; in assay [2], 65.3 µM; in assay [3] it was 49.9 µM; in assay [4], 36 µM; in [5], 80.9 µM; in assay [6] it was 71.1 µM. Also, the TGI in assay [7] was > 100 µM; in assay [8], 45.7 µM; in assay [9], 32 µM; in assay [10], 89.3 µM.
`CCOC(=O)c1ccc(Nc2sc(C(=O)c3ccc(Br)cc3)c(N)c2C#N)cc1`: the GI50 in [1] is 0.421 µM; in assay [3] it was 19.2 µM; in assay [4], 0.257 µM; in assay [5] it was 1.04 µM; in assay [6], 1.43 µM; in [7] it was 7.18 µM. In addition, the GI50 in assay [9] was 3.66 µM; in assay [10], 1.06 µM. In addition, the TGI in assay [1] is > 25.2 µM; in [2], > 100 µM; in [3] it was > 100 µM; in assay [4], 1.01 µM; in assay [5] it was > 100 µM; in assay [6], > 100 µM. Also, the TGI in assay [7], in assay [8], in assay [9] and in assay [10] was > 100 µM each time.
On to `Cc1cc(Nc2ccc(OCc3ccccc3)cc2)nc2cc(O)ccc12`, for which the GI50 was 3.38 µM in [1]; 8.74 µM in assay [2]; 3.49 µM in [3]; 5.49 µM in assay [4]; 13.4 µM in assay [5]; 3.01 µM in assay [6]. In addition, the GI50 is 9.57 µM in assay [7], 10.6 µM in assay [8], 3.88 µM in [9] and 5.23 µM in assay [10]. Besides, the TGI in assay [1] stood at 14.7 µM; in [2] it was 22.6 µM; in assay [3], 17.6 µM; in assay [4], 17.9 µM; in assay [5] it was 26.7 µM; in assay [6], 20.7 µM. Moreover, the TGI in assay [7] was determined as 23.2 µM; in assay [8], 26.3 µM; in [9], 11.2 µM; in [10] it was 20.4 µM.
Consider `CC(C)(C)N1CCC1CN` (stereo unspecified), for which the GI50 in assay [1], in assay [2], in [3], in assay [4], in assay [5] and in assay [6] was > 100 µM each time. The GI50 in [7], in [8], in assay [9] and in [10] was > 100 µM each time. Also, the TGI in assay [1], in assay [2], in assay [3], in assay [4], in [5] and in assay [6] was > 100 µM in each case. For the same molecule, the TGI in [7], in assay [8], in [9] and in assay [10] was > 100 µM each time.
On to `CSC1=Nc2c(c(C)c(-c3ccccc3)n2CCCN2CCCCC2)C2=NC(=O)C[C@H](C)N12`, for which the GI50 in assay [1] was 2.51 µM; in assay [2], 3.21 µM; in assay [3], 4.5 µM; in assay [4], 2.97 µM; in assay [5] it was 2.66 µM; in [6], 2.68 µM. The GI50 is 3.08 µM in assay [7], 2.25 µM in assay [8], 2.63 µM in assay [9] and 3.57 µM in assay [10]. In addition, the TGI in [1] is > 19.8 µM; in assay [2], 37.7 µM; in assay [3], > 79.7 µM; in [4], 10.8 µM; in assay [5] it was 8.57 µM; in assay [6], 10.2 µM. Also, the TGI was > 94.6 µM in assay [7], 13.5 µM in [8], 9.61 µM in assay [9] and > 32.6 µM in assay [10].
Regarding `CN1CCC(COc2cnc(-c3cccc(Cn4nc(-c5cccc(C#N)c5)ccc4=O)c3)nc2)CC1`, the GI50 in [1] was 2 µM; in assay [2], 2 µM; in assay [3] it was 7.18 µM; in assay [4], 2.74 µM; in assay [5], 5.93 µM; in [6], 2.56 µM. In addition, the GI50 in [7] is 4.45 µM; in [8] it was 6.8 µM; in assay [9], 1.83 µM; in assay [10], 3.52 µM. In addition, the TGI in [1] was determined as 4.02 µM; in assay [2] it was 5.32 µM; in assay [3], 24.8 µM; in [4] it was 9.47 µM; in assay [5], 18.5 µM; in [6], 19.6 µM. Further, the TGI is 25.7 µM in [7], 25.2 µM in assay [8], 3.63 µM in assay [9] and 14.7 µM in assay [10].
